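Test compounds were applied to cells in 96-well plates for 48 hours at 5 doses. TGI: total growth inhibition.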
Legend:
Assay in all cases: growth of human tumour cells (NCI), 48 h
SK-MEL-5 melanoma = system: SK-MEL-5 melanoma
ACHN renal = system: ACHN renal
SK-MEL-2 melanoma = system: SK-MEL-2 melanoma
NCI-H460 lung = system: NCI-H460 lung
KM12 colon = system: KM12 colon
SN12C renal = system: SN12C renal
HOP-92 NSCLC = system: HOP-92 NSCLC
NCI-H23 lung = system: NCI-H23 lung
SF-539 CNS = system: SF-539 CNS
COLO 205 colon = system: COLO 205 colon
SK-MEL-28 melanoma = system: SK-MEL-28 melanoma
DU-145 prostate = system: DU-145 prostate
NCI-H522 lung = system: NCI-H522 lung
BT-549 breast = system: BT-549 breast
UO-31 renal = system: UO-31 renal
HT29 colon = system: HT29 colon
SK-OV-3 ovarian = system: SK-OV-3 ovarian
HCT-116 colon = system: HCT-116 colon
MCF7 breast = system: MCF7 breast
CCRF-CEM leukemia = system: CCRF-CEM leukemia
SR leukemia = system: SR leukemia
MDA-MB-435 = system: MDA-MB-435
HL-60(TB) leukemia = system: HL-60(TB) leukemia
HCT-15 colon = system: HCT-15 colon
SNB-19 CNS = system: SNB-19 CNS
SW-620 colon = system: SW-620 colon
TK-10 renal = system: TK-10 renal
HOP-62 NSCLC = system: HOP-62 NSCLC
EKVX NSCLC = system: EKVX NSCLC
HS 578T breast = system: HS 578T breast
SF-295 CNS = system: SF-295 CNS
SF-268 CNS = system: SF-268 CNS
NCI-H226 lung = system: NCI-H226 lung
OVCAR-3 ovarian = system: OVCAR-3 ovarian
RXF 393 renal = system: RXF 393 renal
OVCAR-4 ovarian = system: OVCAR-4 ovarian
MOLT-4 leukemia = system: MOLT-4 leukemia
UACC-257 melanoma = system: UACC-257 melanoma
M14 melanoma = system: M14 melanoma
U251 CNS = system: U251 CNS
MDA-N = system: MDA-N
T-47D breast = system: T-47D breast
786-0 renal = system: 786-0 renal
UACC-62 melanoma = system: UACC-62 melanoma
MALME-3M melanoma = system: MALME-3M melanoma
CAKI-1 renal = system: CAKI-1 renal
NCI/ADR-RES ovarian = system: NCI/ADR-RES ovarian
SNB-75 CNS = system: SNB-75 CNS
A498 renal = system: A498 renal
OVCAR-8 ovarian = system: OVCAR-8 ovarian
OVCAR-5 ovarian = system: OVCAR-5 ovarian
A549 NSCLC = system: A549 NSCLC
PC-3 prostate = system: PC-3 prostate
IGROV1 ovarian = system: IGROV1 ovarian
MDA-MB-231 breast = system: MDA-MB-231 breast
K-562 leukemia = system: K-562 leukemia
RPMI-8226 leukemia = system: RPMI-8226 leukemia
HCC-2998 colon = system: HCC-2998 colon
LOX IMVI melanoma = system: LOX IMVI melanoma

**Q.** How did the TGI (SK-MEL-5 melanoma) turn out when COC1(C2c3ccccc3CCN2C(=O)OC(C)(C)C)C(=O)C(c2ccccc2)=C1N(C)C (centres undefined) was run?
**A.** 58.9 µM

**Q.** And the TGI (ACHN renal)?
**A.** > 100 µM

**Q.** And the TGI (SK-MEL-2 melanoma)?
**A.** 66.5 µM

**Q.** And the TGI (NCI-H460 lung)?
**A.** > 100 µM

**Q.** What about the TGI (KM12 colon) of the same molecule?
**A.** > 100 µM

**Q.** And the TGI (SN12C renal)?
**A.** 39.9 µM

**Q.** And the TGI (HOP-92 NSCLC)?
**A.** 86.2 µM

**Q.** What about the TGI (NCI-H23 lung) of the same molecule?
**A.** 71.6 µM

**Q.** And the TGI (SF-539 CNS)?
**A.** 47.6 µM

**Q.** What about the TGI (COLO 205 colon) of the same molecule?
**A.** 35.4 µM

**Q.** What about the TGI (SK-MEL-28 melanoma) of the same molecule?
**A.** > 100 µM

**Q.** What about the TGI (DU-145 prostate) of the same molecule?
**A.** > 100 µM

**Q.** And the TGI (NCI-H522 lung)?
**A.** 56.8 µM

**Q.** What about the TGI (BT-549 breast) of the same molecule?
**A.** 75 µM

**Q.** And the TGI (UO-31 renal)?
**A.** 64.4 µM

**Q.** What about the TGI (HT29 colon) of the same molecule?
**A.** 43.9 µM

**Q.** What about the TGI (SK-OV-3 ovarian) of the same molecule?
**A.** > 100 µM

**Q.** And the TGI (HCT-116 colon)?
**A.** 96.9 µM

**Q.** What about the TGI (MCF7 breast) of the same molecule?
**A.** > 100 µM

**Q.** What about the TGI (CCRF-CEM leukemia) of the same molecule?
**A.** > 100 µM

**Q.** What about the TGI (SR leukemia) of the same molecule?
**A.** > 100 µM

**Q.** What about the TGI (MDA-MB-435) of the same molecule?
**A.** 61.6 µM

**Q.** What about the TGI (HL-60(TB) leukemia) of the same molecule?
**A.** 79.8 µM

**Q.** And the TGI (HCT-15 colon)?
**A.** > 100 µM

**Q.** What about the TGI (SNB-19 CNS) of the same molecule?
**A.** > 100 µM

**Q.** What about the TGI (SW-620 colon) of the same molecule?
**A.** > 100 µM

**Q.** And the TGI (TK-10 renal)?
**A.** > 100 µM

**Q.** What about the TGI (HOP-62 NSCLC) of the same molecule?
**A.** > 100 µM

**Q.** And the TGI (EKVX NSCLC)?
**A.** > 100 µM

**Q.** What about the TGI (HS 578T breast) of the same molecule?
**A.** 96.9 µM

**Q.** What about the TGI (SF-295 CNS) of the same molecule?
**A.** > 100 µM

**Q.** What about the TGI (SF-268 CNS) of the same molecule?
**A.** > 100 µM

**Q.** What about the TGI (NCI-H226 lung) of the same molecule?
**A.** 59.6 µM

**Q.** And the TGI (OVCAR-3 ovarian)?
**A.** 70.6 µM

**Q.** And the TGI (RXF 393 renal)?
**A.** > 100 µM

**Q.** And the TGI (OVCAR-4 ovarian)?
**A.** > 100 µM

**Q.** What about the TGI (MOLT-4 leukemia) of the same molecule?
**A.** > 100 µM

**Q.** What about the TGI (UACC-257 melanoma) of the same molecule?
**A.** > 100 µM

**Q.** And the TGI (M14 melanoma)?
**A.** > 100 µM

**Q.** And the TGI (U251 CNS)?
**A.** > 100 µM

**Q.** And the TGI (MDA-N)?
**A.** 64 µM

**Q.** What about the TGI (T-47D breast) of the same molecule?
**A.** > 100 µM

**Q.** What about the TGI (786-0 renal) of the same molecule?
**A.** 93.3 µM

**Q.** And the TGI (UACC-62 melanoma)?
**A.** > 100 µM

**Q.** And the TGI (MALME-3M melanoma)?
**A.** 93.8 µM

**Q.** What about the TGI (CAKI-1 renal) of the same molecule?
**A.** > 100 µM

**Q.** What about the TGI (NCI/ADR-RES ovarian) of the same molecule?
**A.** 57.9 µM

**Q.** And the TGI (SNB-75 CNS)?
**A.** > 100 µM

**Q.** And the TGI (A498 renal)?
**A.** 62.6 µM

**Q.** What about the TGI (OVCAR-8 ovarian) of the same molecule?
**A.** > 100 µM

**Q.** And the TGI (OVCAR-5 ovarian)?
**A.** > 100 µM

**Q.** And the TGI (A549 NSCLC)?
**A.** > 100 µM

**Q.** What about the TGI (PC-3 prostate) of the same molecule?
**A.** 82.4 µM

**Q.** Which TGI (SK-MEL-5 melanoma) does the source give for Cc1cccc2[nH]c3c(c(O)cc4[nH]c5cccc(C)c5c(=O)c43)c(=O)c12 here?
**A.** > 10 µM

**Q.** And the TGI (ACHN renal)?
**A.** > 10 µM

**Q.** What about the TGI (SK-MEL-2 melanoma) of the same molecule?
**A.** > 10 µM

**Q.** And the TGI (NCI-H460 lung)?
**A.** > 10 µM

**Q.** What about the TGI (KM12 colon) of the same molecule?
**A.** > 10 µM

**Q.** What about the TGI (SN12C renal) of the same molecule?
**A.** > 10 µM

**Q.** What about the TGI (NCI-H23 lung) of the same molecule?
**A.** 8.5 µM

**Q.** And the TGI (SF-539 CNS)?
**A.** > 10 µM

**Q.** What about the TGI (COLO 205 colon) of the same molecule?
**A.** > 10 µM

**Q.** What about the TGI (SK-MEL-28 melanoma) of the same molecule?
**A.** > 10 µM

**Q.** And the TGI (DU-145 prostate)?
**A.** > 10 µM

**Q.** And the TGI (NCI-H522 lung)?
**A.** > 10 µM

**Q.** And the TGI (BT-549 breast)?
**A.** > 10 µM

**Q.** And the TGI (IGROV1 ovarian)?
**A.** > 10 µM

**Q.** And the TGI (HT29 colon)?
**A.** > 10 µM

**Q.** And the TGI (SK-OV-3 ovarian)?
**A.** > 10 µM

**Q.** And the TGI (MDA-MB-231 breast)?
**A.** > 10 µM

**Q.** And the TGI (HCT-116 colon)?
**A.** > 10 µM

**Q.** And the TGI (MCF7 breast)?
**A.** > 10 µM

**Q.** And the TGI (CCRF-CEM leukemia)?
**A.** > 10 µM

**Q.** What about the TGI (MDA-MB-435) of the same molecule?
**A.** > 10 µM

**Q.** What about the TGI (HL-60(TB) leukemia) of the same molecule?
**A.** > 10 µM

**Q.** And the TGI (HCT-15 colon)?
**A.** > 10 µM

**Q.** And the TGI (SNB-19 CNS)?
**A.** > 10 µM

**Q.** And the TGI (K-562 leukemia)?
**A.** > 10 µM

**Q.** What about the TGI (SW-620 colon) of the same molecule?
**A.** > 10 µM

**Q.** What about the TGI (TK-10 renal) of the same molecule?
**A.** > 10 µM

**Q.** What about the TGI (HOP-62 NSCLC) of the same molecule?
**A.** > 10 µM

**Q.** And the TGI (EKVX NSCLC)?
**A.** > 10 µM

**Q.** What about the TGI (HS 578T breast) of the same molecule?
**A.** > 10 µM

**Q.** And the TGI (SF-295 CNS)?
**A.** > 10 µM

**Q.** And the TGI (SF-268 CNS)?
**A.** > 10 µM

**Q.** And the TGI (NCI-H226 lung)?
**A.** > 10 µM

**Q.** And the TGI (OVCAR-3 ovarian)?
**A.** > 10 µM

**Q.** What about the TGI (RXF 393 renal) of the same molecule?
**A.** > 10 µM

**Q.** What about the TGI (OVCAR-4 ovarian) of the same molecule?
**A.** > 10 µM

**Q.** And the TGI (RPMI-8226 leukemia)?
**A.** > 10 µM

**Q.** And the TGI (MOLT-4 leukemia)?
**A.** > 10 µM

**Q.** And the TGI (UACC-257 melanoma)?
**A.** > 10 µM

**Q.** What about the TGI (M14 melanoma) of the same molecule?
**A.** > 10 µM

**Q.** What about the TGI (HCC-2998 colon) of the same molecule?
**A.** > 10 µM

**Q.** What about the TGI (U251 CNS) of the same molecule?
**A.** > 10 µM

**Q.** And the TGI (LOX IMVI melanoma)?
**A.** > 10 µM

**Q.** And the TGI (MDA-N)?
**A.** > 10 µM

**Q.** What about the TGI (T-47D breast) of the same molecule?
**A.** > 10 µM

**Q.** And the TGI (786-0 renal)?
**A.** 8.03 µM

**Q.** What about the TGI (UACC-62 melanoma) of the same molecule?
**A.** > 10 µM

**Q.** And the TGI (MALME-3M melanoma)?
**A.** > 10 µM

**Q.** And the TGI (CAKI-1 renal)?
**A.** > 10 µM

**Q.** What about the TGI (NCI/ADR-RES ovarian) of the same molecule?
**A.** > 10 µM

**Q.** What about the TGI (SNB-75 CNS) of the same molecule?
**A.** > 10 µM

**Q.** What about the TGI (A498 renal) of the same molecule?
**A.** > 10 µM

**Q.** And the TGI (OVCAR-8 ovarian)?
**A.** > 10 µM

**Q.** And the TGI (OVCAR-5 ovarian)?
**A.** > 10 µM

**Q.** And the TGI (A549 NSCLC)?
**A.** > 10 µM

**Q.** And the TGI (PC-3 prostate)?
**A.** > 10 µM

Source: PubChem BioAssay (NCI)
